According to patent US11447472B2, “Polymorophs of 5-aza-4′-thio-2′-deoxycytidine” (Southern Research Institute, priority 2020, dated 2022):
In brackets after ≈: the same amount, converted by molar mass. Like-named read-outs stand apart in the source and are kept apart here.

Columns and labels:
[1] = Dissolution rate (IDR) at pH 1.2, 6.5 and 5.0; format: physicochemical
[2] = in vivo, 2 mg/kg
[3] = in vivo; details: male, SD, rat, 2 mg/kg; for concentration at 0.25 h / concentration at 0.5 h / concentration at 1 h / concentration at 2 h / concentration at 4 h / concentration at 6 h / concentration at 8 h / concentration at 24 h: Concentration (plasma); for AUC(0-inf) / AUC(0-t) / Cmax / MRT inf / half-life / Tmax: po; for AUC(0-inf): AUCInf; for AUC(0-t): AUClast; for MRT inf: MRTInf_obs
[4] = Chemical stability of aza-T-dCyd in solutions (RT, 50° C., 80° C.), HPLC; format: physicochemical; details: for purity in solution (chemical stability): RT for 24 h, and 50° C. or 80° C. for 1 hour, HPLC
Description: The chemical stability of aza-T-dCyd was determined. Aza-T-dCyd was prepared in 1,4-dioxane, acetonitrile (ACN), isopropanol (IPA), and methyl ethyl ketone. Each solution was divided over 3 vials and incubated at RT for 24 hours, at 50° C. for 1 hour, or at 80° C. for 1 hour. The solutions were analyzed by HPLC at the start and after the incubation time.

[5] = Stability tests at 5° C.: mother liquors and solid phases of suspensions, HPLC; format: physicochemical; details: for chemical stability (purity over time) / purity decreased over time to: 5° C.; for chemical stability (purity over time): 70 hours; for purity decreased over time to: about 70 hours, area %
Description: Additional stability tests were performed at 5° C. Suspensions of the starting material were prepared in water, acetonitrile, ethanol (EtOH), and isopropanol. The mother liquors of the suspensions and the water solution were analyzed by HPLC at regular intervals over 3 days.
The solid phases from the suspensions were also evaluated for purity after 72 h. […] Therefore, the aza-T-dCyd appeared chemically stable in the solid phase after 70-hour incubation at 5° C.

[6] = Thermodynamic solubility, shake-flask method; format: physicochemical; details: for solubility at 24 h: organic solvent or mixture, thermodynamic from solid, RT
Description: The thermodynamic solubility of aza-T-dCyd was determined according to the shake-flask method. Suspensions of the crystalline aza-T-dCyd were prepared in 25 neat solvents. Small aliquots of solvent were added to the aza-T-dCyd until thin suspensions were obtained. Subsequently, the samples were equilibrated at RT under continuous stirring for 24 hours. After equilibration, a small aliquot of mother liquor was filtered and analyzed by HPLC. The concentration of the solute was determined against a calibration curve of the aza-T-dCyd. The solubility values of aza-T-dCyd at room temperature are listed in Table 3 according to the US Pharmacopeia's classification (USP29). The aza-T-dCyd was soluble in high boiling point solvents such as DMF and DMA. Generally, aza-T-dCyd was slightly or very slightly soluble in polar solvents and practically insoluble in non-polar solvents.

Nc1ncn([C@H]2C[C@H](O)[C@@H](CO)S2)c(=O)n1 [Form F, 5-Aza-4′-thio-2′-deoxycytidine]
IDR ([1]; FaSSIF, pH 6.5): 2.7 ± 0.05 mg/mL/Cm^2/min
IDR ([1]; FeSSIF, pH 5.0): 6.0 ± 0.70 mg/mL/Cm^2/min
IDR ([1]; SGF, pH 1.2): 7.0 ± 1.26 mg/mL/Cm^2/min
Concentration (plasma), individual rat ([2]; male, SD, 0.25 h): 394 ng/mL
Concentration (plasma), individual rat ([2]; male, SD, 0.5 h): 780 ng/mL
Concentration (plasma), individual rat ([2]; male, SD, 1 h): 982 ng/mL
Concentration (plasma), individual rat ([2]; male, SD, 2 h): 764 ng/mL
Concentration (plasma), individual rat ([2]; male, SD, 4 h): 377 ng/mL
Concentration (plasma), individual rat ([2]; male, SD, 6 h): 285 ng/mL
Concentration (plasma), individual rat ([2]; male, SD, 8 h): 199 ng/mL
Concentration (plasma), individual rat ([2]; male, SD, 24 h): 3.81 ng/mL
AUCInf, individual rat ([2]; male, SD, po): 5435 ng·h/mL
AUClast, individual rat ([2]; male, SD, po): 5419 ng·h/mL
Cmax, individual rat ([2]; male, SD, po): 982 ng/mL
MRTInf_obs, individual rat ([2]; male, SD, po): 4.63 h
T1/2, individual rat ([2]; male, SD, po): 2.86 h
AUC values higher than SM ([2]; male, SD, rat): about 30%
AUC_%Extrap_obs, Mean ([2]; male, SD, rat): 0.402%
AUClast/D, Mean ([2]; male, SD, rat): 2900 ng·h/mL per mg/kg
Cmax value relative to SM ([2]; rat): about 1.4 times
concentration at 0.25 h ([3]; Mean): 310 ng/mL
concentration at 0.5 h ([3]; Mean): 768 ng/mL
concentration at 1 h ([3]; Mean): 934 ng/mL
concentration at 2 h ([3]; Mean): 755 ng/mL
concentration at 4 h ([3]; Mean): 457 ng/mL
concentration at 6 h ([3]; Mean): 324 ng/mL
concentration at 8 h ([3]; Mean): 222 ng/mL
concentration at 24 h ([3]; Mean): 5.43 ng/mL
concentration at 0.25 h ([3]; individual rat): 225 ng/mL
concentration at 0.5 h ([3]; individual rat): 755 ng/mL
concentration at 1 h ([3]; individual rat): 886 ng/mL
concentration at 2 h ([3]; individual rat): 746 ng/mL
concentration at 4 h ([3]; individual rat): 536 ng/mL
concentration at 6 h ([3]; individual rat): 362 ng/mL
concentration at 8 h ([3]; individual rat): 245 ng/mL
concentration at 24 h ([3]; individual rat): 7.04 ng/mL
AUC(0-inf) ([3]; Mean): 5820 ng·h/mL
AUC(0-inf) ([3]; individual rat): 6210 ng·h/mL
AUC(0-t) ([3]; Mean): 5800 ng·h/mL
AUC(0-t) ([3]; individual rat): 6180 ng·h/mL
Cmax ([3]; Mean): 934 ng/mL
Cmax ([3]; individual rat): 886 ng/mL
MRT inf ([3]; Mean): 4.86 h
MRT inf ([3]; individual rat): 5.09 h
half-life ([3]; T1/2, Mean): 3 h
half-life ([3]; T1/2, individual rat): 3.15 h
Tmax ([3]; Mean): 1 h
Tmax ([3]; individual rat): 1 h

Nc1ncn([C@H]2C[C@H](O)[C@@H](CO)S2)c(=O)n1 [aza-T-dCyd, 5-Aza-4′-thio-2′-deoxycytidine]
purity in solution (chemical stability) ([4]; 1,4-dioxane): > 95%
chemical stability in solution ([4]; IPA, heated at 80° C. (1 hour) or stored at RT for 24 h): degraded significantly
purity in solution (chemical stability) ([4]; acetonitrile): > 95%
chemical stability in solution ([4]; methyl ethyl ketone, 1 hour at 50° C. and 80° C., 24 hour at RT): significant decomposition
chemical stability (purity over time) ([5]; IPA, mother liquor): remained stable
purity decreased over time to ([5]; acetonitrile, mother liquor): 84%
chemical stability (purity over time) ([5]; ethanol, mother liquor): remained stable
Purity of Aza-T-dCYd after 72 h at 5° C. ([5]; solid phase from ACN suspension): 98.8 area %
Purity of Aza-T-dCYd after 72 h at 5° C. ([5]; solid phase from EtOH suspension): 99.8 area %
Purity of Aza-T-dCYd after 72 h at 5° C. ([5]; solid phase from IPA suspension): 99.4 area %
purity of solids recovered from the suspensions ([5]; solid phases from the four solvents after 72 h at 5° C.): about 99 % (area %)
purity decreased over time to ([5]; water solution): 78%
USP29 class. ([6]; 2,2,2,-trifluoroethanol, Methanol (rows r7-r8), class wraps over two lines: Slightly Soluble): Slightly
USP29 class. ([6]; Anisole to Toluene (rows r20-r33), class wraps over two lines: Practically insoluble): Practically
USP29 class. ([6]; Dimethylformamide, N,N-dimethylacetamide (rows r5-r6)): Soluble
USP29 class. ([6]; Ethanol to 1,2-dimethoxyethane (rows r9-r19), class wraps over three lines: Very Slightly Soluble): Very
solubility at 24 h ([6]; 1,2-dimethoxyethane): 100 µg/mL (≈ 409 µM)
solubility at 24 h ([6]; 1,4-dioxane): 300 µg/mL (≈ 1230 µM)
solubility at 24 h ([6]; 1-propanol): 400 µg/mL (≈ 1640 µM)
solubility at 24 h ([6]; 2,2,2,-trifluoroethanol): 4100 µg/mL (≈ 16800 µM)
solubility at 24 h ([6]; 2-butanol): 300 µg/mL (≈ 1230 µM)
solubility at 24 h ([6]; 2-methyltetrahydrofuran): 100 µg/mL (≈ 409 µM)
solubility at 24 h ([6]; 2-propanol): 400 µg/mL (≈ 1640 µM)
solubility at 24 h ([6]; 4-methyl-2-pentanone): 100 µg/mL (≈ 409 µM)
solubility at 24 h ([6]; Acetone): 200 µg/mL (≈ 819 µM)
solubility at 24 h ([6]; Acetonitrile): 100 µg/mL (≈ 409 µM)
solubility at 24 h ([6]; Anisole): < 100 µg/mL
solubility at 24 h ([6]; Chloroform): < 100 µg/mL
solubility at 24 h ([6]; Cumene): < 100 µg/mL
solubility at 24 h ([6]; Cyclohexane): < 100 µg/mL
solubility at 24 h ([6]; Dichloromethane): < 100 µg/mL
solubility at 24 h ([6]; Diethyl ether): < 100 µg/mL
solubility at 24 h ([6]; Dimethylformamide): 65800 µg/mL (≈ 269000 µM)
solubility at 24 h ([6]; Ethanol): 800 µg/mL (≈ 3270 µM)
solubility at 24 h ([6]; Ethyl acetate): < 100 µg/mL
solubility at 24 h ([6]; Ethyl formate): < 100 µg/mL
solubility at 24 h ([6]; Heptane): < 100 µg/mL
solubility at 24 h ([6]; Isopropyl acetate): < 100 µg/mL
solubility at 24 h ([6]; Methanol): 3600 µg/mL (≈ 14700 µM)
solubility at 24 h ([6]; Methyl ethyl ketone): < 100 µg/mL
solubility at 24 h ([6]; N,N-dimethylacetamide): 60000 µg/mL (≈ 246000 µM)
solubility at 24 h ([6]; Tetrahydrofuran): 100 µg/mL (≈ 409 µM)
solubility at 24 h ([6]; Toluene): < 100 µg/mL
solubility at 24 h ([6]; p-Xylene): < 100 µg/mL
solubility at 24 h ([6]; tert-butyl methyl ether): < 100 µg/mL
